Legend:
Design in all cases: species or system athymic female NCR-Nu Mice
[1] = system: MCF-7(ER+) breast tumor xenografts; test: In vivo biolocalization with gamma detecting probe, tumor/background ratio, MCF-7 (ER+) tumor; conditions: for Tumor/Background Ratio (Tu/Bkg): MCF-7 tumor, foreleg background, n = 5
Protocol: (§1) In vivo biolocalization of 11β-ethyl-17α-(Z)-[^125 I](iodovinyl)estra-3,17β-diol (5) and a control compound 16α-[^125 I](iodovinyl)-3,17β-estradiol was determined in athymic female NCR-Nu Mice bearing subcutaneous MCF-7(ER+) breast tumor xenografts and MDA-MB-231 (ER-) breast tumor xenografts. The mice were at least 5 weeks old prior to injection into the right-hand flank with […] of MCF-7 breast carcinoma cells ([…]). One day prior to this procedure, the mice were implanted subcutaneously with a 1.7 mg estradiol pellet in the scapular region. Four to six weeks post-injection of the MCF-7 cells the estradiol pellet was removed and the mice inoculated in the left hind flank with 75 μL NDA-MB-231 breast tumor cells ([…]). Seven to ten days prior to injection of the test compounds, an estradiol pellet was again implanted in the scapular region. One to two days prior to injection of the test compounds, the estradiol pellet was removed, and 5 mice arbitrarily assigned to each test group.
(§2) The mice were each injected via tail vein with between 3 ([…]) and […] ([…]) 125 iodine in approximately […] of phosphate-buffered saline. At various time intervals after injection of the test compounds, each group of mice was anesthetized with methoxyflurane in order to measure the radioactivity over the ER+ and ER- tumors and the front leg for use as a background and the thoraxic area which served as a blood pool control using a gamma detecting probe (RIGS ^TM Model 1001 control unit, Neoprobe Corporation, Columbus, Ohio). Three 20 to 60 second counts were recorded at each area measured at each time point.
(§3) ^c Tu/Bkg = Mean(1-5) of (mean tumor countsn - mean foreleg
(§4) background countsn)/mean foreleg background

[2] = system: MCF-7 tumors located intraperitoneally; test: In vivo localization (biodistribution) in athymic female nude mice bearing intraperitoneal MCF-7 tumors; conditions: for Percent Injected Dose/Gram, blood / Percent Injected Dose/Gram, fat / Percent Injected Dose/Gram, kidney / Percent Injected Dose/Gram, liver / Percent Injected Dose/Gram, muscle / Percent Injected Dose/Gram, spleen / Percent Injected Dose/Gram, tumor / Percent Injected Dose/Gram, uteri: tail vein, intraperitoneal MCF-7, mean, n = 5
Protocol: (§5) In vivo localization of 11β-ethyl-17α-(Z)-[^125 I](iodovinyl)estra-3,17β-diol (5) and a control compound 16α-[^125 I]iodovinyl-3,17β-estradiol (commercially available from DuPont New England Nuclear, MA) was determined in athymic female NCR-Nu Mice (purchased from Simonsen Laboratories, Gilroy, Calif.) bearing subcutaneous MCF-7(ER+) breast tumor xenografts. Prior to injection of the compounds, the mice were each implanted with fragments of MCF-7 breast tumor (approximately 2 cubic millimeters) in the subcutis of the left flank. At approximately the same time, a 1.7 mg estradiol pellet (Innovative Research of America, Toledo, Ohio) was implanted in the scapular region. The tumors were allowed to grow until they reached between 50 and 200 mg by visual inspection (approximately four to five weeks) prior to injection of the test compounds. One day prior to injection of the test compounds, the estradiol pellet was removed.
(§6) The mice were each injected via tail vein with between 3 (1.1×10^5 Bq) and 6 μCi ([…]) ^125 I in approximately 50 μL of phosphate buffered saline. The mice were sacrificed at various time intervals. After exsanguination, the selected organ/tissue were excised, weighed and radioactivity measured in a gamma counter. The counts per minute (cpm) of 125I in each tissue was determined and expressed as cpm per gram of tissue per injected dose multiplied by 100 (percent injected dose/gram).
The procedure of Example 3 was followed except each mouse was inoculated intraperitoneally with MCF-7 breast carcinoma cell line (7.5×10^6 cell/50 μL) rather than implanted subcutaneously with MCF-7 breast tumor. One day prior to this procedure, a 1.7 mg estradiol pellet was implanted subcutaneously in the scapular region. The tumor cells were allowed to form solid tumor nodules for 4 to 6 weeks prior to injection of the test compounds.

[3] = system: MCF-7(ER+) breast tumor xenografts; test: In vivo localization (biodistribution) in athymic female nude mice bearing subcutaneous MCF-7 tumor xenografts; conditions: for Percent Injected Dose/Gram, blood / Percent Injected Dose/Gram, fat / Percent Injected Dose/Gram, kidney / Percent Injected Dose/Gram, liver / Percent Injected Dose/Gram, muscle / Percent Injected Dose/Gram, spleen / Percent Injected Dose/Gram, tumor / Percent Injected Dose/Gram, uteri: tail vein, subcutaneous MCF-7, mean, n = 5
Protocol: as §5, §6

[4] = system: MDA-MB-231 (ER-) breast tumor xenografts; test: In vivo biolocalization with gamma detecting probe, tumor/background ratio, MDA-MB-231 (ER-) tumor; conditions: MDA-MB-231 tumor, foreleg background, n = 5
Protocol: as §1, §2, §3, §4

## C[C@]12CC[C@@H]3c4ccc(O)cc4CC[C@H]3[C@@H]1C[C@@H]([125I])[C@@H]2O [16α-Iodo-[^125 I]-3,17β-Estradiol]
[1]; 10-12 hours
  Tumor/Background Ratio (Tu/Bkg): 4.46 ± 1.44
[1]; 2 hours
  Tumor/Background Ratio (Tu/Bkg): 12.73
[1]; 6 hours
  Tumor/Background Ratio (Tu/Bkg): 9.58 ± 4.69
[1]; 24 hours
  Tumor/Background Ratio (Tu/Bkg): 1.13 ± 0.16
[1]; 48 hours
  Tumor/Background Ratio (Tu/Bkg): 0.13 ± 0.08
[1]; after 10 to 12 hours
  tumor to background ratios / localization at the tumor site (in words): not being maintained or localized at the tumor site
[1]; at 10 to 12 hours
  tumor to background ratios (in words): good tumor to background ratios
[2]; 48 hours post-injection, uteri and tumors, intraperitoneal MCF-7
  radioactivity in the uteri and tumors: no radioactivity defected
[2]; 10-12 hours
  Percent Injected Dose/Gram, blood: 0.50 Percent Injected Dose/Gram
  Percent Injected Dose/Gram, fat: 0.01 Percent Injected Dose/Gram
  Percent Injected Dose/Gram, kidney: 0.24 Percent Injected Dose/Gram
  Percent Injected Dose/Gram, liver: 0.84 Percent Injected Dose/Gram
  Percent Injected Dose/Gram, muscle: 0.00 Percent Injected Dose/Gram
  Percent Injected Dose/Gram, spleen: 0.15 Percent Injected Dose/Gram
  Percent Injected Dose/Gram, tumor: 0.40 Percent Injected Dose/Gram
  Percent Injected Dose/Gram, uteri: 0.45 Percent Injected Dose/Gram
[2]; 2 hours
  Percent Injected Dose/Gram, blood: 0.84 Percent Injected Dose/Gram
  Percent Injected Dose/Gram, fat: 0.92 Percent Injected Dose/Gram
  Percent Injected Dose/Gram, kidney: 0.83 Percent Injected Dose/Gram
  Percent Injected Dose/Gram, liver: 6.54 Percent Injected Dose/Gram
  Percent Injected Dose/Gram, muscle: 0.12 Percent Injected Dose/Gram
  Percent Injected Dose/Gram, spleen: 0.34 Percent Injected Dose/Gram
  Percent Injected Dose/Gram, tumor: 1.35 Percent Injected Dose/Gram
  Percent Injected Dose/Gram, uteri: 2.89 Percent Injected Dose/Gram
[2]; 6 hours
  Percent Injected Dose/Gram, blood: 0.74 Percent Injected Dose/Gram
  Percent Injected Dose/Gram, fat: 0.14 Percent Injected Dose/Gram
  Percent Injected Dose/Gram, kidney: 0.41 Percent Injected Dose/Gram
  Percent Injected Dose/Gram, liver: 5.37 Percent Injected Dose/Gram
  Percent Injected Dose/Gram, muscle: 0.07 Percent Injected Dose/Gram
  Percent Injected Dose/Gram, spleen: 0.36 Percent Injected Dose/Gram
  Percent Injected Dose/Gram, tumor: 0.75 Percent Injected Dose/Gram
  Percent Injected Dose/Gram, uteri: 1.09 Percent Injected Dose/Gram
[2]; 24 hours
  Percent Injected Dose/Gram, blood: 0.06 Percent Injected Dose/Gram
  Percent Injected Dose/Gram, fat: 0.00 Percent Injected Dose/Gram
  Percent Injected Dose/Gram, kidney: 0.03 Percent Injected Dose/Gram
  Percent Injected Dose/Gram, liver: 0.15 Percent Injected Dose/Gram
  Percent Injected Dose/Gram, muscle: 0.00 Percent Injected Dose/Gram
  Percent Injected Dose/Gram, spleen: 0.01 Percent Injected Dose/Gram
  Percent Injected Dose/Gram, tumor: 0.02 Percent Injected Dose/Gram
  Percent Injected Dose/Gram, uteri: 0.02 Percent Injected Dose/Gram
[2]; 48 hours
  Percent Injected Dose/Gram, blood: 0.03 Percent Injected Dose/Gram
  Percent Injected Dose/Gram, fat: 0.00 Percent Injected Dose/Gram
  Percent Injected Dose/Gram, kidney: 0.00 Percent Injected Dose/Gram
  Percent Injected Dose/Gram, liver: 0.08 Percent Injected Dose/Gram
  Percent Injected Dose/Gram, muscle: 0.00 Percent Injected Dose/Gram
  Percent Injected Dose/Gram, spleen: 0.00 Percent Injected Dose/Gram
  Percent Injected Dose/Gram, tumor: 0.00 Percent Injected Dose/Gram
  Percent Injected Dose/Gram, uteri: 0.00 Percent Injected Dose/Gram
[3]; 48 hours post-injection, uteri and tumors, subcutaneous MCF-7
  radioactivity in the uteri and tumors: no radioactivity defected
[3]; 10-12 hours
  Percent Injected Dose/Gram, blood: 0.16 Percent Injected Dose/Gram
  Percent Injected Dose/Gram, fat: 0.00 Percent Injected Dose/Gram
  Percent Injected Dose/Gram, kidney: 0.10 Percent Injected Dose/Gram
  Percent Injected Dose/Gram, liver: 0.55 Percent Injected Dose/Gram
  Percent Injected Dose/Gram, muscle: 0.00 Percent Injected Dose/Gram
  Percent Injected Dose/Gram, spleen: 0.05 Percent Injected Dose/Gram
  Percent Injected Dose/Gram, tumor: 0.09 Percent Injected Dose/Gram
  Percent Injected Dose/Gram, uteri: 0.38 Percent Injected Dose/Gram
[3]; 2 hours
  Percent Injected Dose/Gram, blood: 0.59 Percent Injected Dose/Gram
  Percent Injected Dose/Gram, fat: 0.88 Percent Injected Dose/Gram
  Percent Injected Dose/Gram, kidney: 0.64 Percent Injected Dose/Gram
  Percent Injected Dose/Gram, liver: 3.33 Percent Injected Dose/Gram
  Percent Injected Dose/Gram, muscle: 0.07 Percent Injected Dose/Gram
  Percent Injected Dose/Gram, spleen: 0.28 Percent Injected Dose/Gram
  Percent Injected Dose/Gram, tumor: 0.91 Percent Injected Dose/Gram
  Percent Injected Dose/Gram, uteri: 2.81 Percent Injected Dose/Gram
[3]; 6 hours
  Percent Injected Dose/Gram, blood: 0.58 Percent Injected Dose/Gram
  Percent Injected Dose/Gram, fat: 0.25 Percent Injected Dose/Gram
  Percent Injected Dose/Gram, kidney: 0.37 Percent Injected Dose/Gram
  Percent Injected Dose/Gram, liver: 1.93 Percent Injected Dose/Gram
  Percent Injected Dose/Gram, muscle: 0.05 Percent Injected Dose/Gram
  Percent Injected Dose/Gram, spleen: 0.25 Percent Injected Dose/Gram
  Percent Injected Dose/Gram, tumor: 0.41 Percent Injected Dose/Gram
  Percent Injected Dose/Gram, uteri: 1.02 Percent Injected Dose/Gram
[3]; 24 hours
  Percent Injected Dose/Gram, blood: 0.03 Percent Injected Dose/Gram
  Percent Injected Dose/Gram, fat: 0.00 Percent Injected Dose/Gram
  Percent Injected Dose/Gram, kidney: 0.00 Percent Injected Dose/Gram
  Percent Injected Dose/Gram, liver: 0.09 Percent Injected Dose/Gram
  Percent Injected Dose/Gram, muscle: 0.00 Percent Injected Dose/Gram
  Percent Injected Dose/Gram, spleen: 0.00 Percent Injected Dose/Gram
  Percent Injected Dose/Gram, tumor: 0.00 Percent Injected Dose/Gram
  Percent Injected Dose/Gram, uteri: 0.02 Percent Injected Dose/Gram
[3]; 48 hours
  Percent Injected Dose/Gram, blood: 0.01 Percent Injected Dose/Gram
  Percent Injected Dose/Gram, fat: 0.00 Percent Injected Dose/Gram
  Percent Injected Dose/Gram, kidney: 0.00 Percent Injected Dose/Gram
  Percent Injected Dose/Gram, liver: 0.06 Percent Injected Dose/Gram
  Percent Injected Dose/Gram, muscle: 0.00 Percent Injected Dose/Gram
  Percent Injected Dose/Gram, spleen: 0.00 Percent Injected Dose/Gram
  Percent Injected Dose/Gram, tumor: 0.00 Percent Injected Dose/Gram
  Percent Injected Dose/Gram, uteri: 0.00 Percent Injected Dose/Gram
[4]; 10-12 hours
  Tumor/Background Ratio (Tu/Bkg): 2.51 ± 1.40
[4]; 2 hours
  Tumor/Background Ratio (Tu/Bkg): 10.96
[4]; 6 hours
  Tumor/Background Ratio (Tu/Bkg): 6.23 ± 3.02
[4]; 24 hours
  Tumor/Background Ratio (Tu/Bkg): 0.85 ± 0.29
[4]; 48 hours
  Tumor/Background Ratio (Tu/Bkg): 0.08 ± 0.19
